Experimental data: ChEMBL document CHEMBL1201862, “PubChem BioAssay data set” (2004)
Calls of active or inactive are those of the source.

Assays:
[1] = growth suppression of beta-catenin-knockout colon cells, dose response, cell-based, HCT116, human colon tumor (AID 1045); type: functional;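 also: HCT116 colon tumor cells with beta catenin knocked out; cells exposed to compound for 60 hours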
INS1 = assay: beta cell apoptosis inhibitors, cytokine rescue, dose response, luminescence, retest (AID 449756); type: functional, cell-based; details: Rattus norvegicus;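 also: cell death triggered by IL-1 beta plus TNF-alpha plus IFN-gamma mixture; protective hits raise ATP signal compared with cytokine alone wells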
[2] = cytotoxicity in KRAS-transformed pancreatic duct cells, primary screen, cell-based, fluorescence, HTS (AID 431); type: functional; details: Homo sapiens;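 also: cell line used: HPDE-C7K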
[3] = growth suppression of PTEN-null colon cells, dose response, cell-based, HCT116 PTEN knockout (AID 1047); type: functional;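 also: HCT116 colon tumor cells with PTEN knocked out; cells exposed to compound for 60 hours before readout; potency for loss of cell viability measured by luminescence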
Nonstructural protein 1 = Nonstructural protein 1 (Influenza A virus, UniProt Q194T2); type: functional, Influenza A virus (A/California/07/2009(H1N1))
Chain of Nonstructural protein 1 (Q194T2 whole entry): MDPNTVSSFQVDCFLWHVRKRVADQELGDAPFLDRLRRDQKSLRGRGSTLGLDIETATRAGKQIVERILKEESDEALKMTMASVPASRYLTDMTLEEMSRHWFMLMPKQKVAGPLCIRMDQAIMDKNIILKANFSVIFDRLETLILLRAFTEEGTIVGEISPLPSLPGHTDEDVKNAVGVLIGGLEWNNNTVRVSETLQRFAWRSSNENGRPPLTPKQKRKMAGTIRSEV

[4] = cytotoxicity in HPDE-C7 cells, cell-based, fluorescence, HTS (AID 430); type: functional; details: Homo sapiens
[5] = cytotoxicity in MIN6 insulinoma cells, dose response, cytotoxicity control, cell-based, mouse insulinoma (AID 2122); type: functional;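 also: confirmatory high-throughput counterscreen run to flag cytotoxic compounds; mouse MIN-6 beta cells carrying an insulin promoter eGFP reporter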
[6] = insulin promoter down-regulators in MIN6 cells, imaging, high-content screening, mouse beta cells (AID 1628); type: functional
[7] = target: NAD-dependent protein deacylase sirtuin-5, mitochondrial (Homo sapiens, UniProt Q9NXA8); assay: SIRT5 desuccinylase inhibitors, dose response, biochemical, fluorescence imaging, cherry-pick, set 5 (AID 720591);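 also: desuccinylation of succinyl peptide AMC substrate read as fluorescence after trypsin release; potency of inhibitors that lower fluorescence and may act on trypsin instead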
Chain of NAD-dependent protein deacylase sirtuin-5, mitochondrial (Q9NXA8 whole entry): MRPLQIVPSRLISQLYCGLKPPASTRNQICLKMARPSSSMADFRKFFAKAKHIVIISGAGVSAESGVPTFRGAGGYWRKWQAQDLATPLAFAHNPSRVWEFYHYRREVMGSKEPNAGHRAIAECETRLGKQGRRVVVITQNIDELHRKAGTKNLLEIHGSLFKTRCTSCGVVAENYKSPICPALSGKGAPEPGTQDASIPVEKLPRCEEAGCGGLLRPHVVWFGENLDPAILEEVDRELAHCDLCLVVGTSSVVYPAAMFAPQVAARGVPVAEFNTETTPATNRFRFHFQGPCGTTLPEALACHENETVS

[8] = target: Heat shock protein HSP 90-alpha (Homo sapiens, UniProt P07900); assay: Luminescence-based dose response biochemical high throughput screening assay for inhibitors of the Heat Shock Protein 90 (HSP90). [Related pubchem assays: 1831 (Summary AID.), 1846 (Confirmation screen.), 1789 (Primary screen.)]
[9] = target: Voltage-gated inwardly rectifying potassium channel KCNH2 (Homo sapiens, UniProt Q12809); assay: hERG protection from proarrhythmic block, potency, dose response, cell-based, thallium flux (AID 2121); type: ADME
Chain of Voltage-gated inwardly rectifying potassium channel KCNH2 (Q12809 whole entry): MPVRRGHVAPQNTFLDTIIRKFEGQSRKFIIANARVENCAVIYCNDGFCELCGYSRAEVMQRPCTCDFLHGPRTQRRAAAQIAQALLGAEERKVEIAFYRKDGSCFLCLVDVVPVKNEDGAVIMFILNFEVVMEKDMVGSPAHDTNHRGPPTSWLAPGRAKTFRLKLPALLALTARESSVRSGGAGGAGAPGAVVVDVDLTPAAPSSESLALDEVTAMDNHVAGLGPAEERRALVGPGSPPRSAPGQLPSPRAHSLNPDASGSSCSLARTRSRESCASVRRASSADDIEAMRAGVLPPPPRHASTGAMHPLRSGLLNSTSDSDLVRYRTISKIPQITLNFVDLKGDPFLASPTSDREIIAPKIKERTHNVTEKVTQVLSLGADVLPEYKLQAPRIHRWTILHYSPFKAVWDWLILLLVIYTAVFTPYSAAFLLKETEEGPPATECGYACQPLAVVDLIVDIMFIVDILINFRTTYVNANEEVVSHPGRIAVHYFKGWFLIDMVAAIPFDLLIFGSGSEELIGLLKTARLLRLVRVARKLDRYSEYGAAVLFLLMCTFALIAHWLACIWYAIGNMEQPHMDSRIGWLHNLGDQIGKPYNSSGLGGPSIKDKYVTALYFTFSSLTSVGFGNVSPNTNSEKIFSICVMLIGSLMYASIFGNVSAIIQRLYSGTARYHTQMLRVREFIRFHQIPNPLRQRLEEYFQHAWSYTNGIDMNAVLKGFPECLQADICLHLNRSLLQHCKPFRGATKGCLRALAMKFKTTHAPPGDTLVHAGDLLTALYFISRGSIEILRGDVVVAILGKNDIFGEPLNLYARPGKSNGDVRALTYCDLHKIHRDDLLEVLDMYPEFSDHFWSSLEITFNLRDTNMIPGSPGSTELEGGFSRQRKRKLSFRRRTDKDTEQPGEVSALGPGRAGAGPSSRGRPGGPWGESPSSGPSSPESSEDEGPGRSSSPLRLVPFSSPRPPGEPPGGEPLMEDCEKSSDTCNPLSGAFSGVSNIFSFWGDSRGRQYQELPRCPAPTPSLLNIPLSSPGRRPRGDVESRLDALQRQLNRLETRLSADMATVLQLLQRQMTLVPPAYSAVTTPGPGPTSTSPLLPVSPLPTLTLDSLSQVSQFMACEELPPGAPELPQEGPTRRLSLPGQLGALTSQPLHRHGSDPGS

Estrogen receptor beta = Estrogen receptor beta (Homo sapiens, UniProt Q92731); assay: ERβ–SRC-3 coactivator interaction inhibitors, confirmation, orthogonal assay, biochemical, ELISA, streptavidin-HRP readout (AID 1060)
Chain of Estrogen receptor beta (Q92731 whole entry): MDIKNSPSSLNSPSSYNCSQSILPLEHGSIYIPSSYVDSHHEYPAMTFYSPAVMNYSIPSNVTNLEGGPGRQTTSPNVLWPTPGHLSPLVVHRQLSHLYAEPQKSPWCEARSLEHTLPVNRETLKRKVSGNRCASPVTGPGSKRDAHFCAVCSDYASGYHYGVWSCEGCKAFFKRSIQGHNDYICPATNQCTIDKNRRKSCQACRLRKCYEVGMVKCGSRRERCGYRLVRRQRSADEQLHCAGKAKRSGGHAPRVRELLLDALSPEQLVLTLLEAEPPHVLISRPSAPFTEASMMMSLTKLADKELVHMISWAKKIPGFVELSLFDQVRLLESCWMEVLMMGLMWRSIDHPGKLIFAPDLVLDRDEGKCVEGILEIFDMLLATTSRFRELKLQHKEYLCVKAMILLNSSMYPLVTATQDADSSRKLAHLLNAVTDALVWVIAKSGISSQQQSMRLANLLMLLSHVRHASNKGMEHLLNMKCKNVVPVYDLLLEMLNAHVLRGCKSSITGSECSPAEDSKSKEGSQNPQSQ

Bcl-2-like protein 10 = target: T1, Bcl-2-like protein 10 (Homo sapiens, UniProt Q9HD36); assay: displacers of TR3 peptide from Bcl-B, primary screen, selectivity assay for Bfl-1 inhibitor project, biochemical, fluorescence polarization, FITC-TR3 peptide (AID 748);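 also: fluorescence polarization from a fluorescein-labelled TR3 peptide binding purified Bcl-B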
T1 sequence (Q9HD36 whole entry): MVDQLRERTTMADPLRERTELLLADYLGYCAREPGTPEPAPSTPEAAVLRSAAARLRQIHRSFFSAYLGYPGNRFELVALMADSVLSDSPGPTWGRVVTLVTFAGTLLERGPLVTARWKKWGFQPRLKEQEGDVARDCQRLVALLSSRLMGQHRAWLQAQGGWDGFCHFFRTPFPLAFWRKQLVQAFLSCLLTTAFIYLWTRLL

[10] = target: T2, Oxysterols receptor LXR-beta (Homo sapiens, UniProt P55055); assay: LXR agonists, Gal4 luciferase reporter, dose response, counter-screen for ssDAF-12 agonist project, cell-based, luminescence, HEK293, S. stercoralis campaign (AID 720737); type: functional; details: read-out: IC50 (the source's name)
T2 sequence (P55055 whole entry): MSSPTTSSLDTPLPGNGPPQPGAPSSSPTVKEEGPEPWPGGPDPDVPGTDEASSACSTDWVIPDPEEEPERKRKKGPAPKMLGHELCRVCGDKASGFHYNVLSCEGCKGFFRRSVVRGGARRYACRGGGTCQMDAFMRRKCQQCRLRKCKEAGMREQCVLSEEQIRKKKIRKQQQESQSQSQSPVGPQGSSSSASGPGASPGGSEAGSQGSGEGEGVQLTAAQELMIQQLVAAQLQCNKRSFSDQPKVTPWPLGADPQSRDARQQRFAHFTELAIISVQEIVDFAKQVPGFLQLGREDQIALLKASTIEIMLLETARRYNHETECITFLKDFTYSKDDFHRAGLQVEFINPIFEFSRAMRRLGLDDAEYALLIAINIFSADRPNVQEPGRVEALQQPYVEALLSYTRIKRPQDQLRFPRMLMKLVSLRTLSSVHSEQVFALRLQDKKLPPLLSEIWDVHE

[11] = Luminescence-based cell-based high throughput dose response assay to identify activators of the DAF-12 from the parasite S. stercoralis (ssDAF-12).; type: functional
[12] = ZM109 Env clade C HIV-1 fusion inhibitors, dose response, HeLa effector, CEM target cells, luciferase, cherry-pick (AID 652058); type: functional, cell-based
[13] = inhibitors of HIV Env-driven cell fusion, dose response, cherry-pick (AID 652057); type: functional, cell-based
[14] = inhibitors of SNCA 5'UTR-driven translation, confirmation, luminescence, H4 neuroglioblastoma cells, dose confirmation (AID 2454); type: functional, cell-based;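 also: H4 neuroglioblastoma cells carrying an alpha-synuclein 5'UTR luciferase reporter; potency for inhibition of the luciferase signal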
[15] = MC4R antagonists, dose response, counter-screen for LGR2 antagonist project, cell-based, plate reader, cherry pick (AID 743444); type: functional;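 also: transfected HEK 293 cells stimulated with alpha-MSH peptide; potency of inhibitors of the alpha-MSH evoked signal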
[16] = LGR2 antagonists, dose response, cell-based, HEK293, CRE-luciferase reporter, cherry pick, set 2 (AID 743343); type: functional;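 also: transfected cells were stimulated with diluted bursicon conditioned medium after compound addition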
[17] = cytotoxicity in HEK-293T NF-kB-Luc cells, dose response, cytotoxicity control for B/T-cell NF-kB inhibitor project, cell-based, uHTS hits (AID 489019); type: functional;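 also: IC50 reflects cytotoxicity as loss of cell viability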
[18] = off-target signal loss in HeLa-CEM21 co-culture – HeLa F-luc CTL cells, cherry-picked, counter-screen for HIV-1 Env fusion inhibitor project, dose response (AID 652040); type: functional, cell-based;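 also: potency for signal decrease marking cytotoxic or nonspecific inhibition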
[19] = inhibitors of clade B AD8 Env fusion, dose response, cell-based, cherry-pick (AID 652062); type: functional;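 also: luciferase signal from cell-cell fusion driven by HIV-1 clade B AD8 Env; potency is for inhibitors of fusion seen as a drop in luminescence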
[20] = inhibitors of SNCA 5'UTR-driven reporter translation, confirmation, H4 neuroglioma cells, luminescence (AID 1988); type: functional, cell-based
[21] = luciferase reporter signal reduction – luminescence, H4-C neuroglioblastoma cells, dose response (AID 2458); type: functional, cell-based;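 also: H4 neuroglioblastoma cells stably carrying a luciferase reporter gene fusion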
cells = type: functional, cell-based
Jurkat = assay: antigen receptor-induced NF-kB inhibitors, dose response, Jurkat, luciferase reporter, luminescence, B- and T-cell (AID 489004); type: functional, cell-based; details: Homo sapiens;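 also: NF-kB luciferase reporter Jurkat cells stimulated with PMA plus ionomycin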
[22] = target: T3, Tyrosine-protein phosphatase non-receptor type 7 (Homo sapiens, UniProt P35236); assay: inhibitors of human HePTP phosphatase, […], biochemical, absorbance, leukemia target (AID 521); type: functional
T3 sequence (P35236 whole entry): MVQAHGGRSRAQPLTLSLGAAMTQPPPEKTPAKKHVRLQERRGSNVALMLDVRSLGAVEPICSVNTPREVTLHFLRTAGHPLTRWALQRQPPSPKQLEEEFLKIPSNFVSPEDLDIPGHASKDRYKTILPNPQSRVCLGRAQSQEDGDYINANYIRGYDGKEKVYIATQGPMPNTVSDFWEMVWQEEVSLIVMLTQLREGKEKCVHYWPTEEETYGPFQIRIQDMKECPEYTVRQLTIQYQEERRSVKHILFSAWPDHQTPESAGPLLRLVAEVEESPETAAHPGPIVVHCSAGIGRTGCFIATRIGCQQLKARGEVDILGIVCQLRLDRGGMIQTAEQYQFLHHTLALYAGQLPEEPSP

Estrogen receptor = Estrogen receptor (Homo sapiens, UniProt P03372);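 also: potency for inhibiting coactivator peptide recruitment to the receptor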
Chain of Estrogen receptor (P03372 whole entry): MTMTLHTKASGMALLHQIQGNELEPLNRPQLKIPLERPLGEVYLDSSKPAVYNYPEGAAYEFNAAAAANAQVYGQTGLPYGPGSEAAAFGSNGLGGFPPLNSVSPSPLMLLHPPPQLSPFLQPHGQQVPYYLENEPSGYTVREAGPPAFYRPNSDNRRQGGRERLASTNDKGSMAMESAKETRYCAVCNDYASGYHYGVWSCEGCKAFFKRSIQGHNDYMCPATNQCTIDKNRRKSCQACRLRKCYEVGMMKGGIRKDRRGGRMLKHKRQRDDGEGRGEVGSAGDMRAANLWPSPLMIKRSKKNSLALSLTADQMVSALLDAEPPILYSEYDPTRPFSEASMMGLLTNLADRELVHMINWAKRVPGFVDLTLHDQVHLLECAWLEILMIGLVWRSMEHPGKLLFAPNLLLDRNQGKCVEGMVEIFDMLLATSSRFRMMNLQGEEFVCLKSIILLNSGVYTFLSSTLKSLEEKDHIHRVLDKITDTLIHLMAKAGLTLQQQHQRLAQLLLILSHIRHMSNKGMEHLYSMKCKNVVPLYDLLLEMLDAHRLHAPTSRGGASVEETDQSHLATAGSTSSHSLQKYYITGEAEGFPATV

CCOC(=O)C(C(C)=O)c1c(Br)c(O)c(O)c2c(C(=O)c3ccc(C)cc3)coc12 (stereo unspecified)
EC50 [1]: 15.8 µM (active) | AC50 (INS1): 3.56 µM (active) | EC50 [2]: 3.75 µM (active) | EC50 [3]: 18.8 µM (active) | IC50 (Nonstructural protein 1): > 100 µM (active) | EC50 [4]: 3.41 µM (active) | IC50 [5]: 3.43 µM (active) | IC50 [6]: 4.26 µM (active)

O=S(=O)(c1ccc(NC2=NN=C(c3cc(F)ccc3F)CS2)cc1)N1CCOCC1
AC50 [7]: > 30 µM (inactive)

Cc1ccc(OCc2ccc(C(=O)O)o2)cc1C
IC50 [8]: 1.75 µM (active)

CS(=O)(=O)c1sc(C(=O)NC(=S)Nc2ccc(OC(F)(F)F)cc2)c2c1C=CCC2
EC50 [9]: 1.01 µM (active)

COc1ccc(NC(=O)c2noc3c2CCC3)cc1
IC50 (Estrogen receptor beta): < 0.023 µM (not active) | IC50 (Bcl-2-like protein 10): 12.6 µM (active)

COc1cc(SC)ccc1C(=O)Nc1ccc2c(c1)CCC2
EC50 [10]: > 67.5 µM (inactive) | IC50 [11]: > 67.5 µM (inactive)

Cc1ccc(C(=O)CN2C(=O)c3ccccc3S2(=O)=O)cc1
IC50 [8]: 4.64 µM (active) | AC50 [12]: 17.9 µM (active) | AC50 [13]: 1.81 µM (active) | EC50 [14]: 0.363 µM (active) | AC50 [15]: 0.548 µM (active) | AC50 [16]: 0.594 µM (active) | IC50 [17]: > 80 µM (inactive) | AC50 [18]: 3.11 µM (active) | AC50 [19]: 4.12 µM (active) | EC50 [20]: < 0.1 µM (active) | EC50 [21]: 0.263 µM (active) | EC50 (cells): 0.315 µM (active) | IC50 (Jurkat): 1.57 µM (active)

N=c1c2c3c(sc2ncn1CCN1CCOCC1)CCCC3
IC50 [22]: > 100 µM (not active)

Cc1cc(NC(=O)CSc2nc3c(c(=O)n2CCc2ccccc2)SC(C)C3)no1 (stereo unspecified)
IC50 (Estrogen receptor): 33.6 µM (not active)

CCn1c(COc2ccccc2)nnc1SCC(=O)NC1CCCCC1
IC50 [22]: > 100 µM (not active)
